{"source": "patent US20230133958A1", "about": "“COMPOUNDS USEFUL IN MODULATING EGFR AND PI3K” (Mekanistic Therapeutics LLC, priority 2021, published 2023)", "test": "Metabolic stability in mouse liver microsomes", "assay_type": "in vitro ADME", "settings": "Mouse Liver Microsome (MLM)", "description": "Working solution: 5 µL of compound and control stock solution (10 mM in dimethyl sulfoxide (DMSO)) were diluted with 495 µL of acetonitrile (ACN) (intermediate solution concentration: 100 µM, 99% ACN)\nNADPH Cofactor Preparation: NADPH powder: β-Nicotinamide adenine dinucleotide phosphate reduced form, tetrasodium salt; NADPH 4 Na. The appropriate amount of NADPH powder was weighed and diluted into a 10 mM MgCl2 solution (working solution concentration: 10 unit/mL; final concentration in reaction system: 1 unit/mL)\nLiver Microsomes Preparation: The appropriate concentrations of microsome working solutions were prepared in 100 mM potassium phosphate buffer. Cold (4° C.) acetonitrile (ACN) containing 200 ng/mL tolbutamide and 200 ng/mL labetalol as internal standards (IS) was used as the stop solution\nAssay Procedure: Pre-warm empty ‘Incubation’ plates T60 and NCF60 for 10 minutes. Dilute liver microsomes to 0.56 mg/mL in 100 mM phosphate buffer. Transfer 445 µL microsome working solutions (0.56 mg/mL) into pre-warmed ‘Incubation’ plates T60 and NCF60, Then pre-incubate ‘Incubation’ plates T60 and NCF60 for 10 min at 37° C. with constant shaking. […]\nThe biological stability of the compounds of the invention can be measured by determining its ½ life in the presence microsomes. […]", "data": [{"smiles": "CS(=O)(=O)Nc1cc(-c2ccc3ncnc(Nc4cccc(Cl)c4F)c3c2)cnc1Cl", "note": "[Compound 6, N-[2-chloro-5-[4-(3-chloro-2-fluoro-anilino)quinazolin-6-yl]-3-pyridyl] methanesulfonamide]", "values": [{"measurement": "half-life at 1 µM", "result": "10 to 100", "unit": "min"}]}]}
